US8202908B1, “D-aspartic acid supplement” (priority 2008, dated 2012)

Experiments:
pituitary = settings: both in-vitro and in-vivo; cited from earlier work
pituitary gland = settings: both in-vitro and in-vivo; cited from earlier work
testes = settings: both in-vitro and in-vivo; cited from earlier work
animals = settings: cited from earlier work
adult male humans = assay: Oral DL-aspartic acid given to adult male humans for 21 days, blood hormone levels; assay type: in vivo, human; settings: adult males aged twenty to sixty; 10, 20 or 40 grams DL-aspartic acid per day orally in two doses for twenty-one days; versus baseline
Method: This example illustrates the effects of administering D-aspartic acid to adult male humans.
A group of nine adult males ranging in age from twenty to sixty is divided into three groups of three men each. The division is made so that each group contains a similar age distribution. Blood samples are taken and the levels of testosterone, growth hormone, and insulin-like growth factor 1 are measured.
The men in the first group orally ingest 10 grams of DL-aspartic acid (which includes 5 grams of D-aspartic acid) daily for twenty-one days. The amount is divided into two equal doses, one of which is taken in the morning and one of which is taken in the evening. The men in the second and third groups follow a similar procedure except the men in the second group orally ingest 20 grams of DL-aspartic acid (which includes 10 grams of D-aspartic acid) per day and the men in the third group orally ingest 40 grams of DL-aspartic acid (which includes 20 grams of D-aspartic acid) per day. Blood samples are then retaken.

finishing pigs = finishing pigs fed with N-methyl-D-aspartate; cited from earlier work

Row | Compound | release of luteinizing hormone from the pituitary (pituitary) | growth hormone production from the pituitary gland (pituitary gland) | release of testosterone from the testes (testes) | growth hormone levels in the animals (animals) | testosterone levels in the animals (animals) | level of growth hormone in blood (adult male humans) | level of insulin-like growth factor 1 in blood (adult male humans) | level of testosterone in blood (adult male humans) | growth rate (finishing pigs)
1 | N[C@H](CC(=O)O)C(=O)O [D-aspartic acid] | stimulate the release | stimulate growth hormone production | stimulate the release | increase | increase | – | – | – | –
2 | NC(CC(=O)O)C(=O)O (racemic) [DL-aspartic acid] | – | – | – | – | – | significant increases | significant increases | significant increases | –
3 | CN[C@H](CC(=O)O)C(=O)O [N-methyl-D-aspartate] | – | stimulate growth hormone production | – | increase | increase | – | – | – | increase in growth rate
